Measurements: patent publication US9695175B2, “Highly selective c-Met inhibitors as anticancer agents” (Crown Bioscience Inc. (Taiwan), priority 2012, dated 2017)

How the values were obtained:
[1] = target: c-Met kinase (1038-1346AA) (Homo sapiens (Human), UniProt P08581); assay: c-Met in vitro kinase assay (Lance Ultra ULight-TK); format: biochemical; details: c-Met kinase 12.5 nM, ATP 2.5 uM, 30° C.; read-out: c-Met Enzyme IC50
Procedure: c-Met In Vitro Kinase Assay [Method] Use Lance@Ultra Ulight™-TK test kits from PerKinElmer to evaluate the inhibition of c-Met kinase by the compounds [Instrument] ENVISION plate reader of PerKinElmer […] Then ATP (final concentration 2.5 uM) and kinase substrate (final concentration 50 nM) are added. […] After 1 hr, the plate is read at 615 nm and 665 nm. The ratio of […] at 665 nm and 615 nm is calculated and used for the data analysis as follows. This assay has a Minimum Significant Ratio (MSA) of 2-3. [Samples] All exampled compounds and Crizotinib as the positive control [Data Analysis] Background—the ratio of 665 nm/615 nm (no enzyme):0.003285 • Max—the ratio of 665 nm/615 nm (no test compound):0.075356 [formula] [Software] Use CBIS data analysis software to calculate IC50 values

[2] = target: c-Met protein in S114 cells (Homo sapiens (Human), UniProt P08581); assay: S114 cell-based ELISA, phosphorylation of c-Met protein; details: 30 min compound incubation, phospho-c-Met ELISA
Chain of c-Met protein in S114 cells (P08581 25-1390): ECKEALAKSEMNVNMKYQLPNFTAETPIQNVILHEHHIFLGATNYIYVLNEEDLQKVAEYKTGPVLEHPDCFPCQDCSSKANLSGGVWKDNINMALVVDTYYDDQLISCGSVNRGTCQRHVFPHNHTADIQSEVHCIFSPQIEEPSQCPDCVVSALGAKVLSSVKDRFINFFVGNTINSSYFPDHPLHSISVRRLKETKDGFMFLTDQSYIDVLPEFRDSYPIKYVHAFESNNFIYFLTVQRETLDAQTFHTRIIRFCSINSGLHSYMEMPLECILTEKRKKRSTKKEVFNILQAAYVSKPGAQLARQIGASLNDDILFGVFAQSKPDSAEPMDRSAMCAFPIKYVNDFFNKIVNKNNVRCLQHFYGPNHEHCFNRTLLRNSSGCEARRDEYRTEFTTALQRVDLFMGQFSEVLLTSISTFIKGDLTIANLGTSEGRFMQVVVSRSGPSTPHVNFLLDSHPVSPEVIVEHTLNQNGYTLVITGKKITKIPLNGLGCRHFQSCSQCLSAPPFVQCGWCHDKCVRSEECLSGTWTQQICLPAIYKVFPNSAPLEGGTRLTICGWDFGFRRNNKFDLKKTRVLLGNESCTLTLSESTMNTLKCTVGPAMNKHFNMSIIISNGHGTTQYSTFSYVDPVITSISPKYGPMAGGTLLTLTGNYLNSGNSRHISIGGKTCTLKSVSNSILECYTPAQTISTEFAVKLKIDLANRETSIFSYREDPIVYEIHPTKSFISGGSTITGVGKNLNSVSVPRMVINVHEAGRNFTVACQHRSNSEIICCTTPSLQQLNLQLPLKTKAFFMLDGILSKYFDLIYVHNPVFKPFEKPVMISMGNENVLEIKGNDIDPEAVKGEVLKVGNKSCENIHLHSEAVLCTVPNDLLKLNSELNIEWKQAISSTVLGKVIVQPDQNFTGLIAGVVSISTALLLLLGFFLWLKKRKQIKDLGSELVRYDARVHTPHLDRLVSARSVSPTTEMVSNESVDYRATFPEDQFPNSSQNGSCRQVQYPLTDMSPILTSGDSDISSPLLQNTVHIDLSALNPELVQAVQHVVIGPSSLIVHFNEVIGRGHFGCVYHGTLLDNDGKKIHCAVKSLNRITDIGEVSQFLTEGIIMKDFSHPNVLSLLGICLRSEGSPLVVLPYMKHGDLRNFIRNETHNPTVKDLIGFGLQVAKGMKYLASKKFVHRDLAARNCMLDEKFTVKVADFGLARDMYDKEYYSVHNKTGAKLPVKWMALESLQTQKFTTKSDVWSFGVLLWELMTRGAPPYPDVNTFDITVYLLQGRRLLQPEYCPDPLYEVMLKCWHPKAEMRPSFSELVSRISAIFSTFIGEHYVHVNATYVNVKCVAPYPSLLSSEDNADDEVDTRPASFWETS
Procedure: Cell-Based ELISA [Method] Use ELISA to measure the phosphorylation of c-Met protein in […] cells [Instrument] ENVISION plate reader of PerKinElmer […] [Procedure] […] cells are cultured in DMEM medium (containing 10% FBS). When cells reach 80% confluency, they are collected by trypsinization and centrifugation at 800 rpm for 5 min. The cells are re-suspended in DMEM and adjusted to a density of 500,000 cells/mL. A 96-well plate is pretreated with a solution of Firbronectin in PBS (5 μg/mL) at 100 μL per well for 2 hr. The cell suspension is split into the 96-well culture plate at 100 uL per well and incubated (37° C., 5% CO2) overnight. The capture antibody is diluted with 1/2 Tris-ammonium bicarbonate buffer (1:1000) and transferred into a 96-well absorption plate (70 μL per well) at 4° C. overnight. The solution is discarded and the plate is washed with blocking buffer, followed by adding blocking buffer (150 μL per well), and kept at room temperature for 1 hr. The medium in the 96-well culture plate is discarded and the plate is washed with DMEM (without FBS). Then 80 μL of DMEM (without FBS) and 20 μL of test compound solution at various concentrations in DMEM (without FBS) are added. The culture plate is kept in a culture incubator for 30 min (37° C., 5% CO2). The cell culture medium is discarded and the culture plate is washed with PBS, followed by adding lysis buffer (50 μL per well) and incubated at 4° C. for 20 min. The solution in the absorption plate is discarded and the plate is washed with binding buffer. To each well of the absorption plate is added binding buffer (50 μL) and lysate (40 μL) from the above culture plate; then the plate is incubated at room temperature for 2 hours. The culture medium is discarded and the plate is washed twice with binding buffer, followed by adding a solution of 1st antibody (diluted with binding buffer 1:1000, 100 μL per well) and incubated at 37° C. for 1 hr. The solution is discarded and the plate is washed twice with binding buffer. Then a solution of 2nd antibody is added (100 μL per well) and incubated at 37° C. for another hour. The medium is discarded and the plate is washed twice with binding buffer and once with PBS. To each well, 100 μL of A.B.T.S solution is added and incubated at 37° C. for 30 min. Then OD405 is analyzed on an ENVISION plate reader. This assay has a Minimum Significant Ratio (MSA) of 2-3. [Samples] All exemplified compounds and Crizotinib as the positive control [Data Analysis] Background (no cell lysate): 0.084 • Max (no test compound): 0.517 [formula] [Software] Use CBIS data analysis software to calculate IC50 values

Chain of c-Met kinase (1038-1346AA) (P08581 1038-1346): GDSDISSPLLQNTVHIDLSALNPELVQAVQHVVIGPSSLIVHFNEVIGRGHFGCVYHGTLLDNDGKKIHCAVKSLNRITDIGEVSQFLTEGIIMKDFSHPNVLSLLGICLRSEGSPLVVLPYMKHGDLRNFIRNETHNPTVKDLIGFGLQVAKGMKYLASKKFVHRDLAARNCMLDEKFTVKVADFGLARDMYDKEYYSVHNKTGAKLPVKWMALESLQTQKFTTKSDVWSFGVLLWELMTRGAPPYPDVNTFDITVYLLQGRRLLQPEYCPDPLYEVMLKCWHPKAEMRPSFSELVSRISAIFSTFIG

## Cn1cc2cc(C(F)(F)c3nnc4ncc(-c5cnn(C6CC6)c5)cn34)c(F)cc2n1 [Example 47]
[1]
  IC50: 38 nM
[2]
  IC50: 22 nM

## Cn1cc2cc(C(F)(F)c3nnc4ccc(-c5cncc(Cl)c5)nn34)c(F)cc2n1 [Example 34]
[1]
  IC50: 53.2 nM
[2]
  IC50: 57.6 nM

## Cn1cc2cc(C(F)(F)c3nnc4ccc(-c5cnn(C6CC6)c5)cn34)c(F)cc2n1 [Example 46]
[1]
  IC50: 159 nM
[2]
  IC50: 139 nM

## CCNC(=O)c1ccc(-c2ccc3nnc(C(F)(F)c4cc5cn(C)nc5cc4F)n3n2)cc1F [Example 22]
[1]
  IC50: 20.7 nM
[2]
  IC50: 15.5 nM

## Cn1cc2cc(C(F)(F)c3nnc4ccc(-c5ccc(NC(=O)C6CC6)c(F)c5)nn34)c(F)cc2n1 [Example 29]
[1]
  IC50: 29.5 nM
[2]
  IC50: 7.9 nM

## CNC(=O)c1ccc(-c2ccc3nnc(C(F)(F)c4cc5cn(C)nc5cc4F)n3n2)c(F)c1 [Example 18]
[1]
  IC50: 90.8 nM
[2]
  IC50: 206 nM

## Cn1cc2cc(C(F)(F)c3nnc4ccc(-c5ccc(C(=O)N6CCCC6)c(F)c5)nn34)c(F)cc2n1 [Example 25]
[1]
  IC50: 125 nM
[2]
  IC50: 52.7 nM

## CCNC(=O)c1ccc(-c2ccc3nnc(C(F)(F)c4ccc5nn(C)cc5c4F)n3n2)cc1F [Example 3]
[1]
  IC50: 69.3 nM
[2]
  IC50: 71.5 nM

## Cn1cc2c(F)c(C(F)(F)c3nnc4ccc(-c5ccc(C(=O)NC6CC6)c(F)c5)nn34)ccc2n1 [Example 5]
[1]
  IC50: 45.4 nM
[2]
  IC50: 23.2 nM

## Cn1cc2cc(C(F)(F)c3nnc4ccc(-c5ccc(C(=O)N6CCOCC6)c(F)c5)nn34)c(F)cc2n1 [Example 26]
[1]
  IC50: 357 nM
[2]
  IC50: 299 nM

## CC(C)n1cc(-c2ccc3nnc(C(F)(F)c4ccc5nn(C)cc5c4F)n3n2)cn1 [Example 14]
[1]
  IC50: 102 nM
[2]
  IC50: 22.5 nM

## CC(C)NC(=O)c1ccc(-c2ccc3nnc(C(F)(F)c4cc5cn(C)nc5cc4F)n3n2)cc1F [Example 23]
[1]
  IC50: 41.6 nM
[2]
  IC50: 1.1 nM

## Cn1cc2cc(C(F)(F)c3nnc4ccc(-c5ccc(C#N)nc5)nn34)c(F)cc2n1 [Example 35]
[1]
  IC50: 65 nM
[2]
  IC50: 88.1 nM

## Cn1cc2cc(C(F)(F)c3nnc4ccc(-c5ccc(C(=O)NC6CC6)c(F)c5)nn34)c(F)cc2n1 [Example 24]
[1]
  IC50: 43.4 nM
[2]
  IC50: 14.9 nM

## Cn1cc2cc(C(F)(F)c3nnc4ccc(-c5cnn(C6CCOC6)c5)nn34)c(F)cc2n1 (stereo not shown) [Example 39]
[1]
  IC50: 79.7 nM
[2]
  IC50: 204 nM

## Cc1cncc(-c2ccc3nnc(C(F)(F)c4ccc5nn(C)cc5c4F)n3n2)c1 [Example 9]
[2]
  IC50: 85 nM

## Cn1cc2cc(C(F)(F)c3nnc4ccc(-c5cnn(CC6COCO6)c5)nn34)c(F)cc2n1 (stereo not shown) [Example 41]
[1]
  IC50: 127 nM
[2]
  IC50: 348 nM

## COCCn1cc(-c2ccc3nnc(C(F)(F)c4ccc5nn(C)cc5c4F)n3n2)cn1 [Example 15]
[1]
  IC50: 380 nM
[2]
  IC50: 383 nM

## Cn1cc2cc(C(F)(F)c3nnc4ccc(-c5cnn(C6CC6)c5)nn34)c(F)cc2n1 [Example 44]
[1]
  IC50: 31.6 nM
[2]
  IC50: 7.8 nM

## CC(C)NC(=O)c1ccc(-c2ccc3nnc(C(F)(F)c4cc5cn(C)nc5cc4F)n3n2)c(F)c1 [Example 20]
[1]
  IC50: 137 nM
[2]
  IC50: 158 nM

## Cn1cc2c(F)c(C(F)(F)c3nnc4ccc(-c5ccc(S(N)(=O)=O)c(F)c5)nn34)ccc2n1 [Example 17]
[1]
  IC50: 77.6 nM
[2]
  IC50: 55.6 nM

## CN1CCN(C(=O)c2ccc(-c3ccc4nnc(C(F)(F)c5cc6cn(C)nc6cc5F)n4n3)cc2F)CC1 [Example 27]
[1]
  IC50: 148 nM
[2]
  IC50: 324 nM

## CC(C)NC(=O)c1ccc(-c2ccc3nnc(C(F)(F)c4ccc5nn(C)cc5c4F)n3n2)cc1F [Example 4]
[1]
  IC50: 83.9 nM
[2]
  IC50: 2.6 nM

## CN(C)C(=O)c1ccc(-c2ccc3nnc(C(F)(F)c4ccc5nn(C)cc5c4F)n3n2)cc1F [Example 2]
[1]
  IC50: 148 nM
[2]
  IC50: 103 nM

## COCCn1cc(-c2ccc3nnc(C(F)(F)c4cc5cn(C)nc5cc4F)n3n2)cn1 [Example 40]
[1]
  IC50: 203 nM
[2]
  IC50: 134 nM

## CNC(=O)c1c(F)cc(-c2ccc3nnc(C(F)(F)c4ccc5nn(C)cc5c4F)n3n2)cc1F [Example 6]
[1]
  IC50: 36.5 nM
[2]
  IC50: 9.5 nM

## CNS(=O)(=O)c1ccc(-c2ccc3nnc(C(F)(F)c4cc5cn(C)nc5cc4F)n3n2)cc1F [Example 42]
[1]
  IC50: 136 nM
[2]
  IC50: 406 nM

## Fc1cc2n[nH]cc2cc1C(F)(F)c1nnc2ccc(-c3cnn(C4CC4)c3)nn12 [Example 50]
[1]
  IC50: 1440 nM
[2]
  IC50: 527 nM

## CNC(=O)c1c(F)cc(-c2ccc3nnc(C(F)(F)c4cc5cn(C)nc5cc4F)n3n2)cc1F [Example 28]
[1]
  IC50: 27.7 nM
[2]
  IC50: 14.2 nM

## Cn1cc2c(F)c(C(F)(F)c3nnc4ccc(-c5cnn(CC6COCO6)c5)nn34)ccc2n1 (stereo not shown) [Example 16]
[1]
  IC50: 247 nM
[2]
  IC50: 179 nM

## CNC(=O)c1ccc(-c2ccc3nnc(C(F)(F)c4ccc5nn(C)cc5c4F)n3n2)cc1F [Example 1, 4-(3-(Difluoro(4-fluoro-2-methyl-2H-indazol-5-yl)methyl)-[1,2,4]triazolo[4,3-b]pyridazin-6-yl)-2-fluoro-N-methylbenzamide]
[1]
  IC50: 48.8 nM
[2]
  IC50: 3.9 nM

## Cn1cc(-c2ccc3nnc(C(F)(F)c4cc5cn(C)nc5cc4F)n3n2)cn1 [Example 37]
[1]
  IC50: 50.7 nM
[2]
  IC50: 13.7 nM

## CNC(=O)c1cc(-c2ccc3nnc(C(F)(F)c4cc5cn(C)nc5cc4F)n3n2)ccn1 [Example 30]
[1]
  IC50: 51.8 nM
[2]
  IC50: 45 nM

## Cn1cc2c(F)c(C(F)(F)c3nnc4ccc(-c5cncc(Cl)c5)nn34)ccc2n1 [Example 11]
[2]
  IC50: 42 nM

## Cc1cc(-c2ccc3nnc(C(F)(F)c4cc5cn(C)nc5cc4F)n3n2)ccn1 [Example 36]
[1]
  IC50: 113 nM
[2]
  IC50: 34 nM

## Cn1cc2c(F)c(C(F)(F)c3nnc4ccc(-c5ccc(C#N)nc5)nn34)ccc2n1 [Example 13]
[1]
  IC50: 182 nM
[2]
  IC50: 190 nM

## CNC(=O)c1ccc(-c2ccc3nnc(C(F)(F)c4cc5cn(C)nc5cc4F)n3n2)cn1 [Example 31]
[1]
  IC50: 81.4 nM
[2]
  IC50: 60.6 nM

## CNC(=O)c1ccc(-c2ccc3nnc(C(F)(F)c4ccc5nn(C)cc5c4F)n3n2)cn1 [Example 8]
[2]
  IC50: 122 nM

## CC(C)n1cc(-c2ccc3nnc(C(F)(F)c4cc5cn(C)nc5cc4F)n3n2)cn1 [Example 38]
[1]
  IC50: 82.9 nM
[2]
  IC50: 44.1 nM

## CNC(=O)c1ccc(-c2ccc3nnc(C(F)(F)c4cc5cn(C)nc5cc4F)n3n2)cc1F [Example 19]
[1]
  IC50: 25.6 nM
[2]
  IC50: 5.7 nM

## Cn1cc2cc(C(F)(F)C3(Cl)NN=C4C=CC(c5cnn(C6CC6)c5)=CN43)c(F)cc2n1 (stereo not shown) [Example 45]
[1]
  IC50: 274 nM
[2]
  IC50: 270 nM

## Nc1nc2ccc(C(F)(F)c3nnc4ccc(-c5cnn(C6CC6)c5)nn34)cc2[nH]1 [Example 52]
[1]
  IC50: 568 nM

## Cn1cc2cc(C(F)(F)c3nnc4ccc(-c5cc(F)c6c(c5)CNC6=O)nn34)c(F)cc2n1 [Example 43]
[1]
  IC50: 23.3 nM
[2]
  IC50: 35.2 nM

## Nc1nc2cc(F)c(Cc3nnc4ccc(-c5cnn(C6CC6)c5)nn34)cc2s1 [Example 49]
[1]
  IC50: 38 nM
[2]
  IC50: 65 nM

## CN(C)C(=O)c1ccc(-c2ccc3nnc(C(F)(F)c4cc5cn(C)nc5cc4F)n3n2)cc1F [Example 21]
[1]
  IC50: 180 nM
[2]
  IC50: 262 nM

## O=C(NCCN1CCOCC1)n1cc2cc(C(F)(F)c3nnc4ccc(-c5cnn(C6CC6)c5)nn34)c(F)cc2n1 [Example 51]
[1]
  IC50: 4130 nM

## Cn1cc2c(F)c(C(F)(F)c3nnc4ccc(-c5cncc(F)c5)nn34)ccc2n1 [Example 10]
[2]
  IC50: 142 nM
